Measured values from patent publication US7128898B2, “Method of minimizing cell lysis and toothpaste and mouthwash with reduced irritancy” (priority 1999, dated 2006).

System: red blood cells
Assay: Red blood cell haemolysis assay
Assay type: cell-based
Description: In order to determine the relative toxicity or irritancy levels of various toothpastes and mouthwashes, a red blood cell heamolysis assay was employed to obtain information on the effects of these substances on cell membrane integrity. The Red Blood Cell assay provides a simple test system that uses easily obtainable cells and is characterized by defined and objective endpoints. […] Haemoglobin release is a useful endpoint of cell membrane integrity. It is therefore highly suitable as a screening assay in a first-order in vitro test battery for the assessment of potential toxicity to tissue, including tissues of the oral cavity.
To assess the membranolytic activity of test materials. The test materials are incubated with isolated red blood cells. The degree of damage to the red blood cell membrane is quantified by spectro-photometric measurement of released haemoglobin.
Red blood cells are isolated concentrations of the test materials defined from results of a range finding study; released is measured at 541 nm and the concentration resulting in 50% hemolysis (relative to a totally lysed sample) calculated. […]
(b) After the final centrifugation, the packed cell volume is diluted with phosphate buffered saline (PBS) to give an approximate 2% erythrocyte suspension. […] The exact volume of PBS required for a 2% suspension is calculated from the optical density and adjusted accordingly. […]

Structure (SMILES)	% Hemolysis (Individual Components) (0.05% CPC)	% Hemolysis (Individual Components) (0.10% DHA)
CCCCCCCCCCCCCCCC[n+]1ccccc1 [CPC, Cetylpyridinium Chloride]	92.36%	
CC(=O)C1C(=O)C=C(C)OC1=O (centres unmarked) [DHA, dehydroacetic acid]		3.24%
